In patent publication US20120070411A1, “SUBSTITUTED NUCLEOTIDE ANALOGS” (Alios BioPharma, Inc., priority 2010, published 2012):

Tested on: Huh-7 cells containing the self-replicating, subgenomic HCV replicon
Experiment: HCV replicon assay (luciferase reporter, 72 h)
Format: cell-based
Conditions: Hepatitis C virus, Huh-7, 72 h, read-out: HCV Replicon Activity (EC50)
Method: Huh-7 cells containing the self-replicating, subgenomic HCV replicon with a stable luciferase (LUC) reporter were cultured in Dulbecco's modified Eagle's medium (DMEM) containing 2 mM L-glutamine and supplemented with 10% heat-inactivated fetal bovine serum (FBS), 1% penicillin-streptomyocin, 1% nonessential amino acids, and 0.5 mg/ml G418.
On the first day, 5,000 HCV replicon cells were plated per well in a 96-well plate. On the following day, test compounds were solubilized in 100% DMSO to 100× the desired final testing concentration. Each compound was then serially diluted (1:3) up to 9 different concentrations. Compounds in 100% DMSO are reduced to 10% DMSO by diluting 1:10 in cell culture media. The compounds were diluted to 10% DMSO with cell culture media, which were used to dose the HCV replicon cells in 96-well format. The final DMSO concentration was 1%. The HCV replicon cells were incubated at 37° C. for 72 hours. At 72 hours, cells were processed when the cells are still subconfluent. Compounds that reduce the LUC signal are determined by Bright-Glo Luciferase Assay (Promega, Madison, Wis.). % Inhibition was determined for each compound concentration in relation to the control cells (untreated HCV replicon) to calculate the EC50.

Row | SMILES | EC50 [µM]
1 | CCC(=O)O[C@H]1[C@@H](OC(=O)CC)[C@H](n2cnc3c(N)ncnc32)O[C@@H]1[C@H](C)OP(=O)(N[C@@H](C)C(=O)OC(C)C)Oc1ccccc1 (stereo partly drawn) [A14, 2′,3′-O-dipropionyl-5′(S)—C-methyladenosine 5′-[phenyl(isopropoxy-L-alaninyl)]phosphate] | < 1
2 | COC(=O)[C@H](C)NP(=O)(Oc1ccccc1)O[C@@H](C)[C@H]1O[C@@H](n2cnc3c(N)ncnc32)[C@H](O)[C@@H]1O (stereo partly drawn) [A15, 5′(S)—C-methyladenosine 5′-[phenyl(methoxy-L-alaninyl)]phosphate] | < 30
3 | COC(=O)[C@H](C)NP(=O)(Oc1ccccc1)O[C@@H](C)[C@H]1O[C@@H](n2cnc3c(N)ncnc32)[C@@H]2OC(=O)O[C@@H]21 (stereo partly drawn) [A16, 2′,3′-O-carbonyl-5′(S)—C-methyladenosine 5′-[phenyl(methoxy-L-alaninyl)]phosphate] | < 30
4 | CCC(=O)O[C@H]1[C@@H](OC(=O)CC)[C@H](n2cnc3c(N)ncnc32)O[C@@H]1[C@H](C)OP(=O)(N[C@@H](C)C(=O)OCC(C)(C)C)Oc1ccccc1 (stereo partly drawn) [A17, 2′,3′-O-dipropionyl-5′(S)—C-methyladenosine 5′-[phenyl(neopentoxy-L-alaninyl)]phosphate] | < 1
5 | CCOC(=O)[C@H](C)NP(=O)(Oc1cccc2ccccc12)O[C@@H](C)[C@H]1O[C@@H](n2cnc3c(N)ncnc32)[C@H](O)[C@@H]1O (stereo partly drawn) [A19, 5′(S)—C-methyladenosine 5′-[1-naphthyl(ethoxy-L-alaninyl)]phosphate] | < 1
6 | CC(C)OC(=O)[C@H](C)NP(=O)(Oc1cccc2ccccc12)O[C@@H](C)[C@H]1O[C@@H](n2cnc3c(N)ncnc32)[C@H](O)[C@@H]1O (stereo partly drawn) [A20, 5′(S)—C-methyladenosine 5′-[1-naphthyl(isopropoxy-L-alaninyl)]phosphate] | < 1
7 | C[C@H](NP(=O)(Oc1cccc2ccccc12)O[C@@H](C)[C@H]1O[C@@H](n2cnc3c(N)ncnc32)[C@H](O)[C@@H]1O)C(=O)OCc1ccccc1 (stereo partly drawn) [A21, 5′(S)—C-methyladenosine 5′-[1-naphthyl(benzyloxy-L-alaninyl)]phosphate] | < 1
8 | CCC(=O)O[C@H]1[C@@H](OC(=O)CC)[C@H](n2cnc3c(N)ncnc32)O[C@@H]1[C@H](C)OP(=O)(N[C@@H](C)C(=O)OC(C)C)Oc1cccc2ccccc12 (stereo partly drawn) [A22, 2′,3′-O-dipropionyl-5′-(S)—C-methyladenosine 5′-[1-naphthyl(isopropoxy-L-alaninyl)]phosphate] | < 1
9 | CC(C)OC(=O)[C@H](C)NP(=O)(Oc1cccc2ccccc12)O[C@@H](C)[C@H]1O[C@@H](n2cnc3c(N)ncnc32)[C@@H]2OC(=O)O[C@@H]21 (stereo partly drawn) [A23, 2′,3′-O-carbonyl-5(S)—C-methyladenosine 5′-[1-naphthyl(isopropoxy-L-alaninyl)]phosphate] | < 1
10 | CC[C@H](OP(=O)(N[C@@H](C)C(=O)OC(C)C)Oc1ccccc1)[C@H]1O[C@@H](n2cnc3c(N)ncnc32)[C@H](O)[C@@H]1O (stereo partly drawn) [A24, 5′(S)—C-ethyladenosine 5′-[phenyl(isopropoxy-L-alaninyl)]phosphate] | < 100
11 | CC[C@@H](OP(=O)(N[C@@H](C)C(=O)OC(C)C)Oc1ccccc1)[C@H]1O[C@@H](n2cnc3c(N)ncnc32)[C@H](O)[C@@H]1O (stereo partly drawn) [A25, 5′(R)—C-ethyladenosine 5′-[phenyl(isopropoxy-L-alaninyl)]phosphate] | < 1000
12 | CC(C)OC(=O)[C@H](C)NP(=O)(Oc1ccccc1)O[C@H]([C@H]1O[C@@H](n2cnc3c(N)ncnc32)[C@H](O)[C@@H]1O)C(F)(F)F (stereo partly drawn) [A26, 5′(S)—C-trifluoromethyladenosine 5′-[phenyl(isopropoxy-L-alaninyl)]phosphate] | < 100
13 | CC(C)OC(=O)[C@H](C)NP(=O)(Oc1ccccc1)O[C@@H]([C@H]1O[C@@H](n2cnc3c(N)ncnc32)[C@H](O)[C@@H]1O)C(F)(F)F (stereo partly drawn) [A27, 5′(R)—C-trifluoromethyladenosine 5′-[phenyl(isopropoxy-L-alaninyl)]phosphate] | < 30
14 | CC(NP(=O)(Oc1ccccc1Cl)OC(C)C1OC(n2cnc3c(N)ncnc32)[C@H](O)[C@@H]1O)C(=O)OC1CCCCC1 (stereo partly drawn) [A28, 5′(S)—C-methyladenosine 5′-[2-chlorophenyl(cyclohexoxy-L-alaninyl)]phosphate] | < 1
15 | C[C@H](NP(=O)(Oc1ccc(F)c(Cl)c1)O[C@@H](C)[C@H]1O[C@@H](n2cnc3c(N)ncnc32)[C@H](O)[C@@H]1O)C(=O)OC1CCCCC1 (some centres unmarked) [A29] | < 1
16 | Cc1ccc(OP(=O)(N[C@@H](C)C(=O)OC2CCCCC2)O[C@@H](C)[C@H]2O[C@@H](n3cnc4c(N)ncnc43)[C@H](O)[C@@H]2O)cc1 (some centres unmarked) [A30] | < 1
17 | C[C@H](NP(=O)(Oc1ccc(Cl)cc1)O[C@@H](C)[C@H]1O[C@@H](n2cnc3c(N)ncnc32)[C@H](O)[C@@H]1O)C(=O)OC1CCCCC1 (some centres unmarked) [A32] | < 1

Row | SMILES | EC50 [µM]
18 | COc1ccc(OP(=O)(N[C@@H](C)C(=O)OC2CCCCC2)O[C@@H](C)[C@H]2O[C@@H](n3cnc4c(N)ncnc43)[C@H](O)[C@@H]2O)cc1 (some centres unmarked) [A33] | < 1
19 | CC[C@H](NP(=O)(Oc1ccccc1)O[C@@H](C)[C@H]1O[C@@H](n2cnc3c(N)ncnc32)[C@H](O)[C@@H]1O)C(=O)OC1CCCCC1 (some centres unmarked) [A34] | < 1
20 | C[C@H](NP(=O)(Oc1cccnc1)O[C@@H](C)[C@H]1O[C@@H](n2cnc3c(N)ncnc32)[C@H](O)[C@@H]1O)C(=O)OC1CCCCC1 (some centres unmarked) [A36] | < 30
21 | Cc1ccccc1OP(=O)(N[C@@H](C)C(=O)OC1CCCCC1)O[C@@H](C)[C@H]1O[C@@H](n2cnc3c(N)ncnc32)[C@H](O)[C@@H]1O (some centres unmarked) [A37] | < 1
22 | CCC[C@H](NP(=O)(Oc1ccccc1)O[C@@H](C)[C@H]1O[C@@H](n2cnc3c(N)ncnc32)[C@H](O)[C@@H]1O)C(=O)OC1CCCCC1 (some centres unmarked) [A38] | < 1
23 | CC(C)[C@H](NP(=O)(Oc1ccccc1)O[C@@H](C)[C@H]1O[C@@H](n2cnc3c(N)ncnc32)[C@H](O)[C@@H]1O)C(=O)OC1CCCCC1 (some centres unmarked) [A39] | < 1
24 | CC(C)C[C@H](NP(=O)(Oc1ccccc1)O[C@@H](C)[C@H]1O[C@@H](n2cnc3c(N)ncnc32)[C@H](O)[C@@H]1O)C(=O)OC1CCCCC1 (some centres unmarked) [A40] | < 1
25 | CSCC[C@H](NP(=O)(Oc1ccccc1)O[C@@H](C)[C@H]1O[C@@H](n2cnc3c(N)ncnc32)[C@H](O)[C@@H]1O)C(=O)OC1CCCCC1 (some centres unmarked) [A41] | < 1
26 | C[C@H](OP(=O)(N[C@@H](Cc1ccccc1)C(=O)OC1CCCCC1)Oc1ccccc1)[C@H]1O[C@@H](n2cnc3c(N)ncnc32)[C@H](O)[C@@H]1O (some centres unmarked) [A42] | < 30
27 | C[C@H](OP(=O)(NCC(=O)OC1CCCCC1)Oc1ccccc1)[C@H]1O[C@@H](n2cnc3c(N)ncnc32)[C@H](O)[C@@H]1O (some centres unmarked) [A43] | < 1
28 | CC(C)OC(=O)[C@H](C)NP(=O)(Oc1cccc2ccccc12)O[C@@H](C)[C@H]1O[C@@H](n2ccc(N)nc2=O)[C@H](O)[C@@H]1O (stereo partly drawn) [C2, 5′(S)—C-methylcytidine-[naphthyl(isopropoxy-L-alaninyl)]phosphate] | < 100
29 | COC(=O)[C@H](C)NP(=O)(Oc1ccccc1)O[C@@H](C)[C@H]1O[C@@H](n2ccc(N)nc2=O)[C@H](O)[C@@H]1O (stereo partly drawn) [C6, 5′(S)—C-Methylcytidine 5′-[phenyl(methoxy-L-alaninyl)]phosphate] | < 100
30 | CC(C)OC(=O)[C@H](C)NP(=O)(Oc1ccccc1)O[C@@H](C)[C@H]1O[C@@H](n2ccc(N)nc2=O)[C@H](O)[C@@H]1O (stereo partly drawn) [C8, 5′(S)—C-methylcytidine 5′-[phenyl(isopropoxy-L-alaninyl)]phosphate] | < 100
31 | COC(=O)[C@H](C)NP(=O)(Oc1ccccc1)O[C@H](C)[C@H]1O[C@@H](n2ccc(=O)[nH]c2=O)[C@@H](O)[C@@H]1O (stereo partly drawn) [D1, 5′(R)—C-methylarabinouridine 5′-[phenyl(methoxy-L-alaninyl)]phosphate] | < 1000
32 | COC(=O)[C@H](C)NP(=O)(Oc1ccccc1)O[C@@H](C)[C@H]1O[C@@H](n2ccc(=O)[nH]c2=O)[C@@H](O)[C@@H]1O (stereo partly drawn) [D2, 5′ (S)—C-methylarabinouridine 5′-[phenyl(methoxy-L-alaninyl)]phosphate] | < 1000
33 | CC(C)OC(=O)[C@H](C)NP(=O)(Oc1ccccc1)O[C@@H](C)[C@H]1O[C@@H](n2cnc3c(N)nc(N)nc32)[C@H](O)[C@@H]1O (stereo partly drawn) [E1, 1-(2,6-diaminopurin-9-yl)-5(S)—C-methyl-β-D-ribofuranose 5-[phenyl(isopropoxy-L-alaninyl)]phosphate] | < 30
34 | COC(=O)[C@@H](C)NP(=O)(Oc1ccccc1)O[C@@H](C)[C@H]1O[C@@H](n2cnc3c(N)ncnc32)[C@](C)(O)[C@@H]1O (some centres unmarked) [drawing 355] | 30 to 200

Same assay, conditions: read-out: HCV Replicon Activity (EC50); Table 9; Huh-7 HCV replicon cells, luciferase, 72 hours

Row | SMILES | EC50 [µM]
35 | COC(=O)[C@@H](C)NP(=O)(Oc1ccccc1)O[C@@H](C)[C@H]1O[C@@H](n2cnc3c(N)ncnc32)[C@](C)(O)[C@@H]1O (some centres unmarked) [drawing 364] | 30 to 200
